Values of other authors as cited in patent US20090202995A1, “MOLECULAR CARDIOTOXICOLOGY MODELING” (priority 2005, published 2009).
Read-outs that look alike come from different tables or passages of the source.

How the values were obtained:
[1] = system: heart tissue
[2] = system: heart tissue; details: known designation used to train the model, at the dose, time and route of Table 3
[3] = system: heart tissue; remark: listed apart in the source
[4] = system: heart tissue; remark: listed apart in the source
[5] = system: heart tissue; details: known designation used to train the model, at the dose, time and route of Table 3; remark: listed apart in the source
[6] = system: heart tissue; details: known designation used to train the model, at the dose, time and route of Table 3; remark: listed apart in the source
[7] = known tox (1) / non-tox (−1) designation used to train the model, at the dose, time and route of Table 3
[8] = known designation used to train the model, at the dose, time and route of Table 3

SMILES | General [1, 7] | Andrenergic Agonist [2] | Arrhythmia [3, 8] | Myocardial Necrosis [4, 8] | Vasculature Agent [5] | Heart Failure [6] | General ([1]; rat, in vivo) | Arrhythmia ([3]; rat, in vivo) | Myocardial Necrosis ([4]; rat, in vivo)
Nc1nc2c(ncn2COCCO)c(=O)[nH]1 [Acyclovir] | −1 | −1 | −1 | −1 | −1 | −1 |  |  | 
COc1cccc2c1C(=O)c1c(O)c3c(c(O)c1C2=O)C[C@@](O)(C(=O)CO)C[C@@H]3O[C@H]1C[C@H](N)[C@H](O)[C@H](C)O1 [Adriamycin] | 1 | −1 | −1 | 1 | −1 | 1 |  |  | 
ClC(Cl)(Cl)Cl [CCl4] | −1 | −1 | −1 | −1 | −1 | −1 |  |  | 
N.N.O=C([O-])C1(C(=O)[O-])CCC1.[Pt+2] [Carboplatin] | −1 | −1 | −1 | −1 | −1 | −1 |  |  | 
N.N.[Cl][Pt][Cl] [Cisplatin] | 1 | −1 | 1 | 1 | −1 | −1 |  |  | 
CC(C)(C)NCC(O)c1cc(Cl)c(N)c(Cl)c1 (stereo not shown) [Clenbuterol] | 1 | 1 | 1 | 1 | 1 |  |  |  | 
O=P1(N(CCCl)CCCl)NCCCO1 (stereo not shown) [Cyclophosphamide] | 1 | −1 | −1 | −1 | −1 | 1 |  |  | 
O=C1CN(/N=C/c2ccc(-c3ccc([N+](=O)[O-])cc3)o2)C(O)=N1 [Dantrolene] | 1 | −1 | 1 | −1 |  | 1 |  |  | 
NCCc1ccc(O)c(O)c1 [Dopamine] | 1 | 1 | 1 | −1 | −1 |  |  |  | 
CNC[C@H](O)c1ccc(O)c(O)c1 [Epinephrine] | 1 | 1 | 1 | 1 | −1 | −1 |  |  | 
COc1cccc2c1C(=O)c1c(O)c3c(c(O)c1C2=O)C[C@@](O)(C(=O)CO)C[C@@H]3O[C@H]1C[C@H](N)[C@@H](O)[C@H](C)O1 [Epirubicin] | 1 | −1 | 1 | −1 | −1 | 1 |  |  | 
NC(N)=Nc1nc(CSCCC(N)=NS(N)(=O)=O)cs1 [Famotidine] | 1 | −1 | 1 | −1 | −1 | −1 |  |  | 
NNc1nncc2ccccc12 [Hydralazine] | 1 | −1 | 1 | 1 | 1 | −1 |  |  | 
CC(C)NCC(O)c1ccc(O)c(O)c1 (stereo not shown) [Isoproterenol] | 1 | 1 | 1 | 1 |  |  |  |  | 
Nc1cc(N2CCCCC2)nc(N)[n+]1[O-] [Minoxidil] | 1 | −1 | 1 | 1 | 1 | 1 |  |  | 
C[C@H]1C(=O)O[C@@H]2CCN3CC=C(COC(=O)[C@](C)(O)[C@]1(C)O)[C@H]23 [Monocrotaline] |  |  |  |  |  |  | 1 | −1 | −1
NC[C@H](O)c1ccc(O)c(O)c1 [Norephinephrine] | 1 | 1 | 1 | 1 |  | −1 |  |  | 
Fc1ccc([C@@H]2CCNC[C@H]2COc2ccc3c(c2)OCO3)cc1 [Paroxetine] | 1 |  | 1 | −1 |  |  |  |  | 
N=C(N)c1ccc(OCCCCCOc2ccc(C(=N)N)cc2)cc1 [Pentamidine] | 1 |  | 1 | −1 |  | −1 |  |  | 
CC(N)C(O)c1ccccc1 (stereo not shown) [Phenylpropanolamine] | 1 |  | 1 |  |  | −1 |  |  | 
CN(CCOc1ccc(CC2SC(=O)NC2=O)cc1)c1ccccn1 (stereo not shown) [Rosiglitazone] | 1 |  |  |  |  | 1 |  |  | 
Cn1nnc2c(C(N)=O)ncn2c1=O [Temozolomide] | −1 |  | −1 | −1 |  | −1 |  |  | 
